Legend:
[1] = test system: retinal progenitor cells differentiated from hESCs (differentiation into photoreceptor cells); experiment: Immunochemical staining: positive rates of retinal cell markers after differentiation with substitutes for Wnt3a and Shh; type: cell-based, human; conditions: mean, sample size = 3
Method: The eye field precursors (floating aggregates) were cultured in 8-well poly-D-lysine/laminin-coated slides (BD Biosciences, Bedford, Mass.) under the same conditions that were used for differentiation into the retinal progenitor cells, the neural retinal progenitor cells, the photoreceptor cell precursors and the photoreceptor cells.
After being blocked for 90 min, the slides in each differentiation step were incubated overnight at 4° C. with the following antibodies specific for cells of each differentiation step: rabbit-Blue-opsin (1:500, Chemicon), sheep-Chx10 (1:100, Chemicon), rabbit-Crx (1:200, Santa Cruz Biotechnology, Santa Cruz, Calif., USA), rabbit-GFAP (1:200, Invitrogen), mouse-human specific mitochondria (1:50, Chemicon), rabbit-human specific mitochondria (1:200, Chemicon), mouse-Islet1 (1:10, Developmental Studies Hydroma Bank, DSHB; Iowa City, Iowa, USA), mouse-Ki67 (1:100, Vector Laboratories, Peterborough, England), mouse-Mitf (1:1,000, abcam, Cambridge, Mass., USA), mouse-nestin (1:250, BD Sciences), rabbit-neurofilament-200 (1:1,000, Sigma-Aldrich), rabbit-Otx2 (1:100, abcam), rabbit-Pax2 (1:250, abcam), mouse-Pax6 (1:2, DSHB), mouse-peripherin2 (1:500, GenScript, Piscataway, N.J., USA), rabbit-Rax (1:250, abcam), rabbit-recoverin (1:1,000, Chemicon), retinal pigment epithelium 65 (RPE65, 1:100, Chemicon), rabbit-rhodopsin (1:500, Sigma-Aldrich), mouse-rhodopsin (1:500, Ret-P1, Lab Vision, Fremont, Calif., USA), mouse-rhodopsin (1:2,000, Ret-P1, Sigma-Aldrich), mouse-rom1 (1:50, ABR-Affinity Bioreagents, Golden, Colo., USA), rabbit-PDE6 beta (1:100, abcam), rabbit-phosducin (1:500, Santa Cruz Biotechnology), mouse-PKC-alpha (1:500, Sigma-Aldrich), mouse-Prox1 (1:2,000, Chemicon), mouse-Sox2 (1:250, R&D Systems), rabbit-synaptophysin (1:2,000, Santa Cruz Biotechnology), and rabbit-ZO-1 (1:100, Zymed-Invitrogen).
The cells cultured on the slides in each step were washed three times for 5 min with PBS and incubated at room temperature for 2 hrs with species-specific secondary antibody conjugated with Cy3 (1:800, Jackson Immunoresearch Laboratory) or Alexa488 (1:500, Invitrogen). A standard material suitable for the primary and the secondary antibody was used to examine non-specific staining or interaction between the antibodies. Afterwards, the cells were washed three times for 5 min with PBS, counterstained with DAPI (4′,6-diamidino-2 phenylindole) and mounted in Vectashield (Vector Laboratories), followed by visualization under an epifluorescence microscope (Nikon Eclipse, E800, Tokyo, Japan) and a confocal microscope (Leica, Leica Microsystems Inc, Bannockburn, Ill., USA or Zeiss LSM510, Carl Zeiss, Inc, Thornwood, N.Y., USA).
500 cells were counted from 20 microscopic fields randomly selected at 200 magnification and evaluated for positive responses to each antibody. Positive responses to antibodies were determined after at least three evaluations. […] All data were represented as mean standard error of the mean (S.E.M) with a statistical significance of p<0.05.

[2] = test system: hESC-derived retinal progenitor cells / neural retinal progenitor cells; experiment: Immunochemical staining: marker positive rates during stepwise differentiation (Examples 4 to 6); type: cell-based, human; conditions: 50 ng/ml Wnt3a for 5 days (day 18); 12.8% before addition
Method: The retinal progenitor cells generated in Example 3 were cultured in a medium for inducing differentiation into neural retinal progenitor cells [DMEM/F12 (Invitrogen), 1 mM L-glutamine (Invitrogen), 0.1 mM nonessential amino acids (Invitrogen), 0.1 mM mercaptoethanol (Sigma-Aldrich), 1% B27 supplement (Invitrogen), 1% N2 supplement (Invitrogen), 10 ng/ml noggin, 10 ng/ml IGF-1, 5 ng/ml FGF2, 50 ng/ml recombinant Wnt3a (R&D Systems)] supplied thereto for 5 days, thus giving neural retinal progenitor cells (FIG. 1).
The neural retinal progenitor cells generated in Example 4 were induced to differentiate into photoreceptor cell precursors by supplying a medium [DMEM/F12 (Invitrogen), 1 mM L-glutamine (Invitrogen), 0.1 mM nonessential amino acids (Invitrogen), 0.1 mM mercaptoethanol (Sigma-Aldrich), 1% B27 supplement (Invitrogen), 1% N2 supplement (Invitrogen), 10 ng/ml IGF-1, 50 ng/ml Wnt3a, and 250 ng/ml recombinant Shh (Sonic Hedgehog amino terminal peptide, Shh, R&D Systems)] for 3 days. Noggin and FGF2, both used in the previous step, were excluded from the medium (FIG. 1).
The differentiation of the cells obtained in Examples 3 to 6 was examined using an immunochemical staining method as follows. […]

Molecule: O=C1Nc2cc(Br)ccc2/C1=C1/Nc2ccccc2/C1=N\O [BIO, 6-bromoindirubin-3′ oxime]
- Positive rate of Crx ([1]; Wnt3a substitute at 2 uM): 65.8%
- Positive rate of Ki67 ([1]; Wnt3a substitute at 2 uM): 17.2%
- Positive rate of Pax6 ([1]; Wnt3a substitute at 2 uM): 92.8%
- Positive rate of Rom ([1]; Wnt3a substitute at 2 uM): 60.3%
- Positive rate of b-opsin ([1]; Wnt3a substitute at 2 uM): 77.5%
- Positive rate of peripherin2 ([1]; Wnt3a substitute at 2 uM): 33.9%
- Positive rate of recoverin ([1]; Wnt3a substitute at 2 uM): 77.1%
- Positive rate of rhodopsin ([1]; Wnt3a substitute at 2 uM): 71.5%

Molecule: [Cl-].[Li+] [LiCl]
- Positive rate of recoverin ([1]; Wnt3a substitute at 2.5 mM): 64.1%
- Positive rate of rhodopsin ([1]; Wnt3a substitute at 2.5 mM): 56.2%
- Positive rate of Crx ([1]; Wnt3a substitute at 5 mM): 5.0%
- Positive rate of Ki67 ([1]; Wnt3a substitute at 5 mM): 33.3%
- Positive rate of peripherin2 ([1]; Wnt3a substitute at 5 mM): 1.5%
- Positive rate of recoverin ([1]; Wnt3a substitute at 5 mM): 78.9%
- Positive rate of rhodopsin ([1]; Wnt3a substitute at 5 mM): 68.5%

Molecule: O=C1NC(=O)C(c2ccccc2[N+](=O)[O-])=C1Nc1ccc(O)c(Cl)c1 [SB415286]
- Positive rate of Crx ([1]; Wnt3a substitute at 30 uM): 53.7%
- Positive rate of Ki67 ([1]; Wnt3a substitute at 30 uM): 13.3%
- Positive rate of Pax6 ([1]; Wnt3a substitute at 30 uM): 89.1%
- Positive rate of Rom ([1]; Wnt3a substitute at 30 uM): 59.5%
- Positive rate of b-opsin ([1]; Wnt3a substitute at 30 uM): 53.7%
- Positive rate of peripherin2 ([1]; Wnt3a substitute at 30 uM): 9.1%
- Positive rate of recoverin ([1]; Wnt3a substitute at 30 uM): 70.0%
- Positive rate of rhodopsin ([1]; Wnt3a substitute at 30 uM): 69.3%

Molecule: Norrin: recombinant Norrin (R&D Systems), activator of the Wnt pathway that binds to Frizzled4 receptor
- Positive rate of Crx ([1]; Wnt3a substitute at 50 ng/ml): 39.3%
- Positive rate of Ki67 ([1]; Wnt3a substitute at 50 ng/ml): 42.2%
- Positive rate of Rom ([1]; Wnt3a substitute at 50 ng/ml): 69.5%
- Positive rate of b-opsin ([1]; Wnt3a substitute at 50 ng/ml): 71.1%
- Positive rate of peripherin2 ([1]; Wnt3a substitute at 50 ng/ml): 24.9%
- Positive rate of recoverin ([1]; Wnt3a substitute at 50 ng/ml): 85.0%
- Positive rate of rhodopsin ([1]; Wnt3a substitute at 50 ng/ml): 82.9%

B1: Wnt5A: recombinant Wnt5A (R&D Systems), Wnt signaling pathway activator used instead of Wnt3a (protein, UniProt P41221 62-380, looked up)
Protein Wnt-5a: IIGAQPLCSQLAGLSQGQKKLCHLYQDHMQYIGEGAKTGIKECQYQFRHRRWNCSTVDNTSVFGRVMQIGSRETAFTYAVSAAGVVNAMSRACREGELSTCGCSRAARPKDLPRDWLWGGCGDNIDYGYRFAKEFVDARERERIHAKGSYESARILMNLHNNEAGRRTVYNLADVACKCHGVSGSCSLKTCWLQLADFRKVGDALKEKYDSAAAMRLNSRGKLVQVNSRFNSPTTQDLVYIDPSPDYCVRNESTGSLGTQGRLCNKTSEGMDGCELMCCGRGYDQFKTVQTERCHCKFHWCCYVKCKKCTEIVDQFVCK
- Positive rate of Crx ([1]; Wnt3a substitute at 50 ng/ml): 67.3%
- Positive rate of Ki67 ([1]; Wnt3a substitute at 50 ng/ml): 41.3%
- Positive rate of Rom ([1]; Wnt3a substitute at 50 ng/ml): 58.8%
- Positive rate of b-opsin ([1]; Wnt3a substitute at 50 ng/ml): 55.0%
- Positive rate of peripherin2 ([1]; Wnt3a substitute at 50 ng/ml): 20.7%
- Positive rate of recoverin ([1]; Wnt3a substitute at 50 ng/ml): 61.0%
- Positive rate of rhodopsin ([1]; Wnt3a substitute at 50 ng/ml): 59.5%
- Positive rate of peripherin2 ([1]; Wnt3a substitute at 100 ng/ml): 14.2%
- Positive rate of recoverin ([1]; Wnt3a substitute at 100 ng/ml): 61.6%
- Positive rate of rhodopsin ([1]; Wnt3a substitute at 100 ng/ml): 56.1%

B2: Wntl: recombinant Wnt1 (PeproTech), Wnt signaling pathway activator used instead of Wnt3a (protein, UniProt P04628 28-370, looked up)
Proto-oncogene Wnt-1: ANSSGRWWGIVNVASSTNLLTDSKSLQLVLEPSLQLLSRKQRRLIRQNPGILHSVSGGLQSAVRECKWQFRNRRWNCPTAPGPHLFGKIVNRGCRETAFIFAITSAGVTHSVARSCSEGSIESCTCDYRRRGPGGPDWHWGGCSDNIDFGRLFGREFVDSGEKGRDLRFLMNLHNNEAGRTTVFSEMRQECKCHGMSGSCTVRTCWMRLPTLRAVGDVLRDRFDGASRVLYGNRGSNRASRAELLRLEPEDPAHKPPSPHDLVYFEKSPNFCTYSGRLGTAGTAGRACNSSSPALDGCELLCCGRGHRTRTQRVTERCNCTFHWCCHVSCRNCTHTRVLHECL
- Positive rate of Crx ([1]; Wnt3a substitute at 50 ng/ml): 60.3%
- Positive rate of Ki67 ([1]; Wnt3a substitute at 50 ng/ml): 23.8%
- Positive rate of Rom ([1]; Wnt3a substitute at 50 ng/ml): 55.9%
- Positive rate of b-opsin ([1]; Wnt3a substitute at 50 ng/ml): 61.6%
- Positive rate of peripherin2 ([1]; Wnt3a substitute at 50 ng/ml): 3.8%
- Positive rate of recoverin ([1]; Wnt3a substitute at 50 ng/ml): 70.9%
- Positive rate of rhodopsin ([1]; Wnt3a substitute at 50 ng/ml): 66.2%

B3: Wntll: recombinant Wnt11 (R&D Systems), Wnt signaling pathway activator used instead of Wnt3a (protein, UniProt O96014 25-354, looked up)
Protein Wnt-11: IKWLALSKTPSALALNQTQHCKQLEGLVSAQVQLCRSNLELMHTVVHAAREVMKACRRAFADMRWNCSSIELAPNYLLDLERGTRESAFVYALSAAAISHAIARACTSGDLPGCSCGPVPGEPPGPGNRWGGCADNLSYGLLMGAKFSDAPMKVKKTGSQANKLMRLHNSEVGRQALRASLEMKCKCHGVSGSCSIRTCWKGLQELQDVAADLKTRYLSATKVVHRPMGTRKHLVPKDLDIRPVKDSELVYLQSSPDFCMKNEKVGSHGTQDRQCNKTSNGSDSCDLMCCGRGYNPYTDRVVERCHCKYHWCCYVTCRRCERTVERYVCK
- Positive rate of Crx ([1]; Wnt3a substitute at 50 ng/ml): 65.9%
- Positive rate of Ki67 ([1]; Wnt3a substitute at 50 ng/ml): 40.1%
- Positive rate of Rom ([1]; Wnt3a substitute at 50 ng/ml): 50.2%
- Positive rate of b-opsin ([1]; Wnt3a substitute at 50 ng/ml): 30.6%
- Positive rate of peripherin2 ([1]; Wnt3a substitute at 50 ng/ml): 0.5%
- Positive rate of recoverin ([1]; Wnt3a substitute at 50 ng/ml): 65.3%
- Positive rate of rhodopsin ([1]; Wnt3a substitute at 50 ng/ml): 51.8%
- Positive rate of peripherin2 ([1]; Wnt3a substitute at 100 ng/ml): 10.7%
- Positive rate of recoverin ([1]; Wnt3a substitute at 100 ng/ml): 61.8%
- Positive rate of rhodopsin ([1]; Wnt3a substitute at 100 ng/ml): 59.1%

B4: Wnt3a: recombinant Wnt3a (R&D Systems), Wnt signaling pathway activator (protein, UniProt P56704 19-352, looked up)
Protein Wnt-3a: SYPIWWSLAVGPQYSSLGSQPILCASIPGLVPKQLRFCRNYVEIMPSVAEGIKIGIQECQHQFRGRRWNCTTVHDSLAIFGPVLDKATRESAFVHAIASAGVAFAVTRSCAEGTAAICGCSSRHQGSPGKGWKWGGCSEDIEFGGMVSREFADARENRPDARSAMNRHNNEAGRQAIASHMHLKCKCHGLSGSCEVKTCWWSQPDFRAIGDFLKDKYDSASEMVVEKHRESRGWVETLRPRYTYFKVPTERDLVYYEASPNFCEPNPETGSFGTRDRTCNVSSHGIDGCDLLCCGRGHNARAERRREKCRCVFHWCCYVSCQECTRVYDVHTCK
- Positive rate of the photoreceptor cell precursor marker Crx after Wnt3a addition [2]: 80.1%
